Measurements published in patent publication US7153822B2, “Compositions and methods for modulating connexin hemichannels” (Wyeth, priority 2002, dated 2006).

How the values were obtained:
[1] = tested on: infarcted mice; test: bone marrow cell transplantation after myocardial infarction (design of Orlic et al); format: in vivo; settings: repeated administration during the proliferation process
Text: Myocardial infarction leads to loss of tissue and impairment of cardiac performance. The remaining myocytes are unable to reconstitute the necrotic tissue, and the post-infarcted heart deteriorates with time. Injury to a target organ is sensed by distant stem cells, which migrate to the site of damage and undergo alternate stem cell differentiation; these events promote structural and functional repair. This high degree of stem cell plasticity prompted Orlic et al (Nature 410, 701–705 (2001)) to test whether dead myocardium could be restored by transplanting bone marrow cells in infarcted mice. They sorted lineage-negative (Lin−) bone marrow cells from transgenic mice expressing enhanced green fluorescent protein by fluorescence-activated cell sorting on the basis of c-kit expression. Shortly after coronary ligation, Lin− c-kitPOS cells were injected in the contracting wall bordering the infarct. […] The developing tissue comprised proliferating myocytes and vascular structures. Their studies indicate that locally delivered bone marrow cells can generate de novo myocardium, ameliorating the outcome of coronary artery disease. […]

[2] = tested on: connexin 43 (Cx43); test: immunoprecipitation and immunoblot of phosphorylated connexin 43; format: cell-based; settings: cultured H9c2 cardiomyocytes
Protocol: H9c2 cells were seeded in 24-multi well dishes in a density of 7,900 cells/cm^2 (˜15,000 cells/well) and grown for 3 days in MEM suplemented with 10% foetal calf serum (FCS) and 1000 units penicillin/1000 μg streptomycin (pen/strep) in an atmosphere of 5% CO2 and 100% humidity at 37° C.
The labelled cells were incubated in Triton X-100 lysis buffer (˜5*10^7 cells/ml) for 1 hr at 4° C. The lysate is centrifuged 30 min at 20,000*g for 30 min. The supernatant was precleared by adding 10 ul Sepharose per 200 μl supernatant. The precleared supernatant were then added 0.5–1 μg phospho-tyrosine or phospho-serine antibodies (Sigma) and incubated for 1.5 hr at 4° C. in an orbital shaker. The antibody-complex was then captured by incubation with 50 μl of a 1:1 slurry of protein G Sepharose for 1.5 hr. Finally the complex were extensively washed with 0.1% (w/v) Triton X-100, 50 mM Tris, pH 7.4, 300 mM NaCl and 5 mM EDTA.
The complexes were loaded onto a 12% SDS gel and blotted onto a PVDF membrane. The membrane is blocked with 0.1% Tween 20, 50 mM Tris, pH 7.4, 300 mM NaCl, 5% dry milk (TBST) for minimum 2 h. The membrane was subsequently incubated with connexin 43 specific antibodies (Zymed) for 1.5 h at RT and developed with ECL+ (Amersham).

Ac-Gly-Asn-Tyr-NH2 [Compound 2]
connexin 43 expression [1]: increase in connexin 43 expression | tyrosine phosphorylation of connexin 43 [2]: phosphorylation of Cx43 tyrosine
